In PubChem BioAssay AID192 (DTP/NCI, 2004):
Values joined by “and” are separate entries in the source; they are usually repeats but may differ in a detail not shown here. Equal values may be shown once. Toxic doses and inconclusive results are not listed. Square brackets hold non-standard residues; d marks the D form. Peptide text beside a SMILES is read from it. * marks the point of attachment. Cbz = O=C(OCc1ccccc1)*; Nva = CCC[CH](N)C(=O)O

Test system: BDF1 mice, B16 melanoma ip, median survival T/C
Experiment: NCI In Vivo Anticancer Drug Screen. Data for tumor model B16 Melanoma (intraperitoneal) in B6D2F1 (BDF1) mice
Conditions: endpoint: median survival time, higher = longer survival
Summary of the method: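 Survival or tumor size is measured after treatment of tumor-bearing mice and normalised to the vehicle-treated control group.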

[1] = dose: 50.0 mg/kg/injection, schedule: Q01DX009 (ip), vehicle: saline with Tween-80
[2] = dose: 12.5 mg/kg/injection, schedule: Q01DX009 (ip), vehicle: saline
[3] = dose: 6.25 mg/kg/injection, schedule: Q01DX009 (ip), vehicle: Klucel (hydroxypropylcellulose) (HPC)
[4] = dose: 100.0 mg/kg/injection, schedule: Q01DX009 (ip), vehicle: Klucel (hydroxypropylcellulose) (HPC)
[5] = dose: 8.0 mg/kg/injection, schedule: Q01DX009 (ip), vehicle: Klucel (hydroxypropylcellulose) (HPC)

With CCCC(NC(=O)C(Cc1ccccc1)NC(=O)OCc1ccccc1)C(=O)O (stereo not drawn) (Cbz-Phe-[Nva]-OH; configuration not given here) the T/C [1] was 95 % of control and the T/C (dose: 100.0 mg/kg/injection, schedule: Q01DX009 (ip), vehicle: saline with Tween-80) was 92 % of control.
CC(N)Cc1ccc(O)cc1 (stereo not drawn) was tested, and the T/C [2] was 102 % of control, the T/C (dose: 25.0 mg/kg/injection, schedule: Q01DX009 (ip), vehicle: saline) was 110 % of control and the T/C (dose: 50.0 mg/kg/injection, schedule: Q01DX009 (ip), vehicle: saline) was 100 % of control. The T/C (dose: 100.0 mg/kg/injection, schedule: Q01DX009 (ip), vehicle: saline) was 105 % of control and the T/C (dose: 200.0 mg/kg/injection, schedule: Q01DX009 (ip), vehicle: saline) was 100 % of control.
With CN(C)CC/C=C1\c2ccccc2Sc2ccc(Cl)cc21 the T/C (dose: 0.12 mg/kg/injection, schedule: Q01DX009 (ip), vehicle: Klucel (hydroxypropylcellulose) (HPC)) was 95 % of control, the T/C (dose: 0.24 mg/kg/injection, schedule: Q01DX009 (ip), vehicle: Klucel (hydroxypropylcellulose) (HPC)) was 86 % of control and the T/C (dose: 0.48 mg/kg/injection, schedule: Q01DX009 (ip), vehicle: Klucel (hydroxypropylcellulose) (HPC)) was 88 % of control. The T/C (dose: 1.95 mg/kg/injection, schedule: Q01DX009 (ip), vehicle: Klucel (hydroxypropylcellulose) (HPC)) was 86 % of control, the T/C (dose: 7.0 micrograms/kg/injection, schedule: Q01DX009 (ip), vehicle: Klucel (hydroxypropylcellulose) (HPC)) was 105 % of control and the T/C (dose: 15.0 micrograms/kg/injection, schedule: Q01DX009 (ip), vehicle: Klucel (hydroxypropylcellulose) (HPC)) was 107 % of control. The T/C (dose: 30.0 micrograms/kg/injection, schedule: Q01DX009 (ip), vehicle: Klucel (hydroxypropylcellulose) (HPC)) was 105 % of control, the T/C (dose: 60.0 micrograms/kg/injection, schedule: Q01DX009 (ip), vehicle: Klucel (hydroxypropylcellulose) (HPC)) was 105 % of control and the T/C (dose: 120.0 micrograms/kg/injection, schedule: Q01DX009 (ip), vehicle: Klucel (hydroxypropylcellulose) (HPC)) was 98 % of control.
With O[C@H](c1cc(C(F)(F)F)nc2c(C(F)(F)F)cccc12)[C@@H]1CCCCN1 the T/C (dose: 0.78 mg/kg/injection, schedule: Q01DX009 (ip), vehicle: Klucel (hydroxypropylcellulose) (HPC)) was 97 % of control, the T/C (dose: 1.56 mg/kg/injection, schedule: Q01DX009 (ip), vehicle: Klucel (hydroxypropylcellulose) (HPC)) was 104 % of control and the T/C (dose: 3.12 mg/kg/injection, schedule: Q01DX009 (ip), vehicle: Klucel (hydroxypropylcellulose) (HPC)) was 113 % of control. The T/C (dose: 4.5 mg/kg/injection, schedule: Q04DX003 (ip), vehicle: Klucel (hydroxypropylcellulose) (HPC)) was 113 % of control, the T/C [3] was 90 % of control and the T/C (dose: 9.0 mg/kg/injection, schedule: Q04DX003 (ip), vehicle: Klucel (hydroxypropylcellulose) (HPC)) was 100 % of control.
With Cc1ccc(C(=N)c2ccccc2Cc2cccc3ccccc23)c(C)c1 the T/C [1] was 88 % of control.
With CSc1ncnc2c1ncn2-n1cccc1 the T/C [4] was 88 % of control, the T/C (dose: 100.0 mg/kg/injection, schedule: Q04DX003 (ip), vehicle: Klucel (hydroxypropylcellulose) (HPC)) was 100 % of control and the T/C (dose: 200.0 mg/kg/injection, schedule: Q01DX009 (ip), vehicle: Klucel (hydroxypropylcellulose) (HPC)) was 88 % of control. The T/C (dose: 200.0 mg/kg/injection, schedule: Q04DX003 (ip), vehicle: Klucel (hydroxypropylcellulose) (HPC)) was 100 % of control, the T/C (dose: 400.0 mg/kg/injection, schedule: Q01DX009 (ip), vehicle: Klucel (hydroxypropylcellulose) (HPC)) was 113 % of control and the T/C (dose: 400.0 mg/kg/injection, schedule: Q04DX003 (ip), vehicle: Klucel (hydroxypropylcellulose) (HPC)) was 100 % of control.
For NC(=O)c1cc([N+](=O)[O-])c(Cl)c([N+](=O)[O-])c1Cl, the T/C (dose: 4.0 mg/kg/injection, schedule: Q01DX009 (ip), vehicle: Klucel (hydroxypropylcellulose) (HPC)) was 93 % of control and the T/C [5] was 92 % of control.
COC1C(C)OC(OC2CC(C)(O)Cc3cc4c(c(O)c32)C(=O)c2c(O)cc3c(c2C4=O)OC2OC3(C)C(O)C(N(C)C)C2O)C(OC)C1(C)OC (stereo not drawn) was tested, and the T/C (dose: 0.16 mg/kg/injection, schedule: Q01DX009 (ip), vehicle: other) was 95 % of control, the T/C (dose: 0.63 mg/kg/injection, schedule: Q01DX009 (ip), vehicle: other) was 159 % of control and the T/C (dose: 5.4 mg/kg/injection, schedule: Q04DX003 (ip), vehicle: lactic acid) was 195 % of control. The T/C (dose: 9.0 mg/kg/injection, schedule: Q04DX003 (ip), vehicle: lactic acid) was 171 % of control.
CCCCNC1=C(N2CC2)C(=O)C(NCCCC)=C(N2CC2)C1=O was tested, and the T/C (dose: 1.25 mg/kg/injection, schedule: Q01DX009 (ip), vehicle: saline) was 113 % of control and the T/C (dose: 2.5 mg/kg/injection, schedule: Q01DX009 (ip), vehicle: saline) was 112 % of control.
For OC(COC(c1ccccc1)(c1ccccc1)c1ccccc1)C(O)CC1SCCS1 (stereo not drawn), the T/C (dose: 3.13 mg/kg/injection, schedule: Q01DX009 (ip), vehicle: saline with Tween-80) was 107 % of control, the T/C (dose: 6.25 mg/kg/injection, schedule: Q01DX009 (ip), vehicle: saline with Tween-80) was 100 % of control and the T/C (dose: 12.5 mg/kg/injection, schedule: Q01DX009 (ip), vehicle: saline with Tween-80) was 103 % of control. For the same compound, the T/C (dose: 25.0 mg/kg/injection, schedule: Q01DX009 (ip), vehicle: saline with Tween-80) was 104 % of control.
For C[C@@H](CN1CC(=O)NC(=O)C1)N1CC(=O)NC(=O)C1, the T/C (dose: 8.0 mg/kg/injection, schedule: Q01DX009 (ip), vehicle: saline with Tween-80) was 100 % of control, the T/C (dose: 16.0 mg/kg/injection, schedule: Q01DX009 (ip), vehicle: saline with Tween-80) was 117 % of control and the T/C (dose: 16.0 mg/kg/injection, schedule: Q01DX009 (ip), vehicle: water) was 107 % of control and 122 % of control. The T/C (dose: 25.0 mg/kg/injection, schedule: Q04DX003 (ip), vehicle: water) was 101 % of control and 107 % of control, the T/C (dose: 32.0 mg/kg/injection, schedule: Q01DX009 (ip), vehicle: saline with Tween-80) was 112 % of control and the T/C (dose: 32.0 mg/kg/injection, schedule: Q01DX009 (ip), vehicle: water) was 111 % of control. The T/C (dose: 50.0 mg/kg/injection, schedule: Q04DX003 (ip), vehicle: water) was 103 % of control, the T/C (dose: 100.0 mg/kg/injection, schedule: Q04DX003 (ip), vehicle: water) was 104 % of control and 112 % of control and the T/C (dose: 128.0 mg/kg/injection, schedule: Q01DX009 (ip), vehicle: water) was 113 % of control. For the same compound, the T/C (dose: 200.0 mg/kg/injection, schedule: Q04DX003 (ip), vehicle: water) was 103 % of control, the T/C (dose: 256.0 mg/kg/injection, schedule: Q01DX009 (ip), vehicle: water) was 87 % of control and the T/C (dose: 400.0 mg/kg/injection, schedule: Q04DX003 (ip), vehicle: water) was 117 % of control. For the same compound, the T/C (dose: 800.0 mg/kg/injection, schedule: Q04DX003 (ip), vehicle: water) was 88 % of control.
With COc1cccc2c1C(=O)c1c(O)c3c(c(O)c1C2=O)C[C@@](O)(C(C)O)C[C@@H]3OC1CC(N2CCOCC2C#N)C(O)C(C)O1 (stereo partly drawn) the T/C (dose: 4.69 micrograms/kg/injection, schedule: Q01DX001 (ip), vehicle: water) was 110 % of control, the T/C (dose: 9.37 micrograms/kg/injection, schedule: Q01DX001 (ip), vehicle: water) was 115 % of control and the T/C (dose: 37.5 micrograms/kg/injection, schedule: Q01DX001 (ip), vehicle: water) was 124 % of control.
C/C=C(\Cl)C1=CC(=O)C23CC2C2(C)COC1(O)C3(O)O2 (stereo not drawn) was tested, and the T/C (dose: 0.75 mg/kg/injection, schedule: Q01DX009 (ip), vehicle: saline with Tween-80) was 91 % of control.
For CC1(C)N=C(N)N=C(N)N1c1ccc(CCC(=O)Nc2ccc(S(=O)(=O)F)cc2)c(Cl)c1, the T/C (dose: 6.25 mg/kg/injection, schedule: Q01DX009 (ip), vehicle: saline) was 104 % of control and the T/C [2] was 108 % of control.
In the case of FC(F)(F)C(=Cc1nc2ccccc2s1)C(F)(F)F, the T/C [3] is reported as 103 % of control and the T/C (dose: 12.5 mg/kg/injection, schedule: Q01DX009 (ip), vehicle: Klucel (hydroxypropylcellulose) (HPC)) is reported as 100 % of control.
In the case of O=C1c2ccccc2C(=O)c2c(NCCCCCO)ccc(NCCCCCO)c21, the T/C [5] is reported as 99 % of control, the T/C (dose: 16.0 mg/kg/injection, schedule: Q01DX009 (ip), vehicle: Klucel (hydroxypropylcellulose) (HPC)) is reported as 95 % of control and the T/C (dose: 32.0 mg/kg/injection, schedule: Q01DX009 (ip), vehicle: Klucel (hydroxypropylcellulose) (HPC)) is reported as 91 % of control.
In the case of Cc1ccc(S(=O)(=O)N=N/C=C2/C=CC=CN2O)cc1, the T/C (dose: 25.0 mg/kg/injection, schedule: Q01DX009 (ip), vehicle: Klucel (hydroxypropylcellulose) (HPC)) is reported as 108 % of control, the T/C (dose: 50.0 mg/kg/injection, schedule: Q01DX009 (ip), vehicle: Klucel (hydroxypropylcellulose) (HPC)) is reported as 114 % of control and the T/C [4] is reported as 115 % of control.
